Measured values reported in patent US20230107941A1, “HEPATITIS B CAPSID ASSEMBLY MODULATORS” (Venatorx Pharmaceuticals, Inc., priority 2019, published 2023).

How the values were obtained:
[1] = In vitro cytotoxicity assay (MTT cell viability) in HepG2 cells; assay type: cell-based, human; conditions: human
How it was run: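 CC50 was derived by 4-parameter fit of viability relative to vehicle controls, measured as MTT formazan absorbance at 492 nm after 3–4 h of reagent and DMSO solubilization. Before that, HepG2 cells seeded overnight at 20,000/well were incubated 7 days at 37°C with compound from 30 μM down to 1.0 nM in half-log steps.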

[2] = system: HBV; experiment: In vitro antiviral assay: anti-HBV replication in HepAD38 cells (extracellular HBV DNA by QPCR); assay type: cell-based, hepatitis B virus (genotype D, serotype ayw); conditions: Hepatitis B virus, HePAD38, 168 h, 7 days incubation, extracellular HBV DNA by QPCR, read-out: Anti-HBV EC50
How it was run: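 HepG2-derived HepAD38 cells (HBV genotype D, ayw, tet-repressible CMV) induced by tetracycline withdrawal, treated 7 days at 37 °C with compound (1 μM to 10 pM, 10-fold steps). Supernatant HBV DNA quantified by QPCR against standard curve, percent of DMSO control; EC50 by 4-parameter fit; entecavir positive control.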

Row | Structure (SMILES) | CC50 at 7 days [1] [µM] | EC50 [2] [nM]
1 | Cc1cc(NC(=O)c2c(C3CC3)c(C(=O)C(=O)N[C@]3(C)CC[C@@H](O)CC3)n(C)c2C)ccc1F [Example 102, 4-cyclopropyl-N-(4-fluoro-3-methylphenyl)-5-(2-(((1r,4r)-4-hydroxy-1-methylcyclohexyl)amino)-2-oxoacetyl)-1,2-dimethyl-1H-pyrrole-3-carboxamide] | > 30 | < 50
2 | Cc1cc(NC(=O)c2c(C3CC3)c(C(=O)C(=O)NC3CCN(c4cccnn4)CC3)n(C)c2C)ccc1F [Example 103, 4-cyclopropyl-N-(4-fluoro-3-methylphenyl)-1,2-dimethyl-5-(2-oxo-2-((1-(pyridazin-3-yl)piperidin-4-yl)amino)acetyl)-1H-pyrrole-3-carboxamide] | > 30 | 500 to 1000
3 | CCc1c(C(=O)Nc2ccc(F)c(C)c2)c(C)c(C(=O)C(=O)N[C@]2(C)C[C@H](O)C2)n1C [Example 104, 2-ethyl-N-(4-fluoro-3-methylphenyl)-5-(2-(((1s,3s)-3-hydroxy-1-methylcyclobutyl)amino)-2-oxoacetyl)-1,4-dimethyl-1H-pyrrole-3-carboxamide] | > 30 | < 50
4 | CCc1c(C(=O)Nc2ccc(F)c(C)c2)c(C)c(C(=O)C(=O)NCC(C)(C)O)n1C [Example 105, 2-ethyl-N-(4-fluoro-3-methylphenyl)-5-(2-((2-hydroxy-2-methylpropyl)amino)-2-oxoacetyl)-1,4-dimethyl-1H-pyrrole-3-carboxamide] | > 30 | < 50
5 | CCc1c(C(=O)Nc2ccc(F)c(C)c2)c(C)c(C(=O)C(=O)N[C@H]2CC[C@@H](S(C)(=O)=O)CC2)n1C [Example 106, 2-ethyl-N-(4-fluoro-3-methylphenyl)-1,4-dimethyl-5-(2-(((1s,4s)-4-(methylsulfonyl)cyclohexyl)amino)-2-oxoacetyl)-1H-pyrrole-3-carboxamide] | > 30 | < 50
6 | CCc1c(C(=O)Nc2ccc(F)c(C)c2)c(C)c(C(=O)C(=O)N[C@]2(C)CC[C@H](O)CC2)n1C [Example 107, 2-ethyl-N-(4-fluoro-3-methylphenyl)-5-(2-(((1s,4s)-4-hydroxy-1-methylcyclohexyl)amino)-2-oxoacetyl)-1,4-dimethyl-1H-pyrrole-3-carboxamide] | > 30 | < 50
7 | CCc1c(C(=O)Nc2ccc(F)c(C)c2)c(C)c(C(=O)C(=O)N[C@H]2CC[C@@H](O)CC2)n1C [Example 108, 2-ethyl-N-(4-fluoro-3-methylphenyl)-5-(2-(((1s,4s)-4-hydroxycyclohexyl)amino)-2-oxoacetyl)-1,4-dimethyl-1H-pyrrole-3-carboxamide] | 5 to 30 | < 50
8 | Cc1cc(NC(=O)c2c(C)c(C(=O)C(=O)N[C@]3(C)C[C@H](O)C3)n(C)c2C(C)C)ccc1F [Example 109, N-(4-fluoro-3-methylphenyl)-5-(2-(((1s,3s)-3-hydroxy-1-methylcyclobutyl)amino)-2-oxoacetyl)-2-isopropyl-1,4-dimethyl-1H-pyrrole-3-carboxamide] | > 30 | 50 to 499
9 | Cc1cc(NC(=O)c2c(C)c(C(=O)C(=O)N[C@H]3CC[C@@H](S(C)(=O)=O)CC3)n(C)c2C(C)C)ccc1F [Example 110, N-(4-fluoro-3-methylphenyl)-2-isopropyl-1,4-dimethyl-5-(2-(((1s,4s)-4-(methylsulfonyl)cyclohexyl)amino)-2-oxoacetyl)-1H-pyrrole-3-carboxamide] | > 30 | 500 to 1000
10 | Cc1cc(NC(=O)c2c(C)c(C(=O)C(=O)N[C@]3(C)CC[C@H](O)CC3)n(C)c2C(C)C)ccc1F [Example 111, N-(4-fluoro-3-methylphenyl)-5-(2-(((1s,4s)-4-hydroxy-1-methylcyclohexyl)amino)-2-oxoacetyl)-2-isopropyl-1,4-dimethyl-1H-pyrrole-3-carboxamide] | > 30 | < 50
11 | Cc1cc(NC(=O)c2c(C)c(C(=O)C(=O)N[C@H]3CC[C@@H](O)CC3)n(C)c2C(C)C)ccc1F [Example 112, N-(4-fluoro-3-methylphenyl)-5-(2-(((1s,4s)-4-hydroxycyclohexyl)amino)-2-oxoacetyl)-2-isopropyl-1,4-dimethyl-1H-pyrrole-3-carboxamide] | > 30 | 50 to 499
12 | Cc1cc(NC(=O)c2c(C)c(C(=O)C(=O)NCC(C)(C)O)n(C)c2C(C)C)ccc1F [Example 113, N-(4-fluoro-3-methylphenyl)-5-(2-((2-hydroxy-2-methylpropyl)amino)-2-oxoacetyl)-2-isopropyl-1,4-dimethyl-1H-pyrrole-3-carboxamide] | > 30 | 50 to 499
13 | Cc1cc(NC(=O)c2c(C)c(C(=O)C(=O)N[C@]3(C)CC[C@H](O)CC3)n(C)c2C2CC2)ccc1F [Example 114, 2-cyclopropyl-N-(4-fluoro-3-methylphenyl)-5-(2-(((1s,4s)-4-hydroxy-1-methylcyclohexyl)amino)-2-oxoacetyl)-1,4-dimethyl-1H-pyrrole-3-carboxamide] | > 30 | < 50
14 | Cc1cc(NC(=O)c2c(C)c(C(=O)C(=O)N[C@H]3CC[C@@H](O)CC3)n(C)c2C2CC2)ccc1F [Example 115, 2-cyclopropyl-N-(4-fluoro-3-methylphenyl)-5-(2-(((1s,4s)-4-hydroxycyclohexyl)amino)-2-oxoacetyl)-1,4-dimethyl-1H-pyrrole-3-carboxamide] | > 30 | < 50
15 | Cc1cc(NC(=O)c2c(C)c(C(=O)C(=O)N[C@]3(C)C[C@H](O)C3)n(C)c2C2CCCCC2)ccc1F [Example 116, 2-cyclohexyl-N-(4-fluoro-3-methylphenyl)-5-(2-(((1s,3s)-3-hydroxy-1-methylcyclobutyl)amino)-2-oxoacetyl)-1,4-dimethyl-1H-pyrrole-3-carboxamide] | > 30 | 500 to 1000
16 | Cc1cc(NC(=O)c2c(C)c(C(=O)C(=O)N[C@H]3CC[C@@H](S(C)(=O)=O)CC3)n(C)c2C2CCCCC2)ccc1F [Example 117, 2-cyclohexyl-N-(4-fluoro-3-methylphenyl)-1,4-dimethyl-5-(2-(((1s,4s)-4-(methylsulfonyl)cyclohexyl)amino)-2-oxoacetyl)-1H-pyrrole-3-carboxamide] | > 30 | > 1000
17 | Cc1cc(NC(=O)c2c(C)c(C(=O)C(=O)N[C@]3(C)CC[C@H](O)CC3)n(C)c2C2CCCCC2)ccc1F [Example 118, 2-cyclohexyl-N-(4-fluoro-3-methylphenyl)-5-(2-(((1s,4s)-4-hydroxy-1-methylcyclohexyl)amino)-2-oxoacetyl)-1,4-dimethyl-1H-pyrrole-3-carboxamide] | > 30 | 500 to 1000
18 | Cc1cc(NC(=O)c2c(C)c(C(=O)C(=O)N[C@H]3CC[C@@H](O)CC3)n(C)c2C2CCCCC2)ccc1F [Example 119, 2-cyclohexyl-N-(4-fluoro-3-methylphenyl)-5-(2-(((1s,4s)-4-hydroxycyclohexyl)amino)-2-oxoacetyl)-1,4-dimethyl-1H-pyrrole-3-carboxamide] | 5 to 30 | 500 to 1000
19 | Cc1cc(NC(=O)c2c(C)c(C(=O)C(=O)NCC(C)(C)O)n(C)c2C2CCCCC2)ccc1F [Example 120, 2-cyclohexyl-N-(4-fluoro-3-methylphenyl)-5-(2-((2-hydroxy-2-methylpropyl)amino)-2-oxoacetyl)-1,4-dimethyl-1H-pyrrole-3-carboxamide] | > 30 | > 1000
